In experiment [1] the test system is MCF7-Cispl-R cells. Put plainly: Cell ROS levels, MCF7-Cispl-R cells. In kind it is cell-based, human. To be noted: GC4419 exposure; data not shown. On the procedure:
FIGS. 27a-27c are an image and graphs showing that MnSOD-Ac-K68/HIF2α dysregulation directs PanR (resistance to cancer therapeutics). […] In FIG. 27b, ROS was measured in MCF7-Cispl-R cells, compared with MCF7 cells, using an Amplex Red assay. In FIG. 27c, MCF7 and MCF7-MnSOD^K68Q cells were measured by clonogenic cell survival assays, without and with Cispl exposure, and infected with scrambled (C) or HIF2α shRNA. All experiments were done in triplicate. Error bars are ±1 SEM. * p<0.05.
Aberrant HIF2α levels promote lineage plasticity, leading to chemoresistance and metastasis. […] Thus, MCF7 cells were selected for cisplatin resistance (Cispl-R) by 3 months of exposure to 5 μM Cispl.

Experiment [2] deals with MCF7-HTR cells. Put plainly: Clonogenic cell survival, hydroxy-Tam-resistant MCF7-HTR cells. The experiment is classed as cell-based, human. To be noted: 5 μM GC4419 for 5 days. The protocol:
Clonogenic cell survival assay. For the clonogenic survival analysis, exponentially growing cells were replated using appropriate dilutions, and clonogenic survival was evaluated after 14 days in regular growth medium. Cells were stained with crystal violet, and colonies of >50 cells were counted and utilized to calculate clonogenic survival^46.
To test parameters indicative of oxidative stress, a clonogenic assay with hydroxy-Tam and antioxidant treatments was performed. Cells were plated at a density of 50,000 cells per 60-mm dish and treated with 1 μM hydroxy-Tam (Sigma) and 5 μM GC4419 (Galera Therapeutics) for a total of 120 h. This protocol was repeated with a fresh medium change every 24 h for 5 days. On day 6, the cells were trypsinized, counted, and replated in control medium using appropriate dilutions, and clonogenic survival was evaluated.

In experiment [3] the test system is MCF-7-MnSOD^K68Q cells. Kind of experiment: Clonogenic cell survival after 5 Gy ionizing radiation, MCF-7-MnSOD^K68Q cells. The experiment is classed as cell-based, human. To be noted: 5 μM GC4419 for 5 days, then 5 Gy ionizing radiation. On the procedure: FIGS. 30a-30b are plots showing that expression of MnSOD^K68Q induces ionizing radiation resistance (IRR) in MCF7 cells. […] All experiments were done in triplicate. Error bars represent±1 SEM. ***p<0.001. Data were analyzed by a t-test.
To determine if the MnSOD-K68-Ac-ROS axis plays a role in IRR, it was hypothesized that MnSOD acetylation might play a role in how tumor cells are reprogrammed to produce a IRR phenotype. To address this idea, an established tumor cell line MCF-7 was infected with lenti-MnSOD^K68Q to induce MnSOD^K68Q expression, which was validated. MCF-7-MnSOD^WT and MCF-7-MnSOD^K68Q cells were treated without or with 5 Gy of IR.

In experiment [4] the test system is Tam resistant as well as loss of Sirt3 tumor cell lines. Put plainly: In vitro Tam resistance, Tam resistant and loss of Sirt3 tumor cell lines. In kind it is cell-based. The settings on record: data not shown.
Experiment [5] concerns head-and-neck cancer patients. The settings on record: head-and-neck cancer patients undergoing chemoradiation therapy; cited from earlier work.
Experiment [6] has as its system MCF7-HTR cells. Put plainly: Ki-67 staining, MCF7-HTR cells. In kind it is cell-based, human. To be noted: 5 μM GC4419 and/or 1 μM 4-hydroxy-Tam for 5 days. The source says: With respect to FIG. 16a, the data from FIG. 7i, where MCF7-HTR cells were stained for Ki-67, as well as DAPI, were counted with ImageJ and quantified for average Ki-67 intensity as shown in the bar graph. With respect to FIGS. 16b and 16c, T47D and T47D-HTR cells were stained for Ki-67 as well as DAPI, and particles in the nucleus were counted with ImageJ and quantified for average Ki-67 intensity as shown in the bar graph. In FIGS. 16d and 16e, MCF7-HTR cells, and in FIGS. 16f and 16g, T47D-HTR cells, were treated with 5 μM GC4419 and/or 1 μM 4-hydroxy-Tam for 5 days, and then stained for Ki-67 as well as DAPI. Quantifications of average Ki-67 intensity are shown in the bar graphs. All experiments were done in triplicate. Error bars represent ±1 SEM. ***p<0.001. Representative images are shown.
Cells seeded on glass coverslips were fixed in 4% paraformaldehyde and then blocked with 1% BSA and 10% normal goat serum in 1×PBS. Cells were incubated with anti-Ki-67 (c-bioscience) antibody in 1×PBS followed by incubation with goat anti-rabbit IgG conjugated with Alexa Fluor 647 (Invitrogen) in 1×PBS with 5% goat serum. Cells were washed in 1×PBS, mounted, and imaged with a fluorescence microscope. Fluorescence images were captured using a laser scanning confocal microscope (Nikon A1R). The paired images in all the figures were collected at the same gain and offset settings. […]

The subject of experiment [7] is rat. To be noted: rat model; cited from earlier work.
In experiment [8] the test system is T47D-MnSOD^K68Q cells. Kind of experiment: Ki-67 staining, T47D-MnSOD^K68Q cells. In kind it is cell-based, human. The settings on record: 5 μM GC4419 and/or 1 μM 4-hydroxy-Tam for 5 days. The protocol: MCF7-MnSOD^K68Q cells (in FIGS. 17a and 17b) and T47D-MnSOD^K68Q cells (in FIGS. 17c and 17d) were treated with 5 μM GC4419 and/or 1 μM 4-hydroxy-Tam for 5 days, and then stained for Ki-67 as well as DAPI. Quantifications of average Ki-67 intensity are shown in the bar graphs. In FIG. 17e, MCF7 and MCF7-HTR cells were implanted into both hind limbs of nude mice and tumor volumes were measured every 3 days for 6 weeks and the number of tumors that successfully implanted versus the total number of mice infected with MCF7 and MCF7-HTR as well as the average tumor weight and tumor size are shown. Representative images are shown. All experiments were done in triplicate. Error bars represent ±1 SEM. ***p<0.001.
Cells seeded on glass coverslips were fixed in 4% paraformaldehyde and then blocked with 1% BSA and 10% normal goat serum in 1×PBS. Cells were incubated with anti-Ki-67 (c-bioscience) antibody in 1×PBS followed by incubation with goat anti-rabbit IgG conjugated with Alexa Fluor 647 (Invitrogen) in 1×PBS with 5% goat serum. Cells were washed in 1×PBS, mounted, and imaged with a fluorescence microscope. Fluorescence images were captured using a laser scanning confocal microscope (Nikon A1R). The paired images in all the figures were collected at the same gain and offset settings. Post-collection processing was applied uniformly to all paired images.

The values below come from US20230149358A1, “COMBINATION CANCER THERAPY WITH PENTAAZA MACROCYCLIC RING COMPLEX AND HORMONE THERAPY AGENT” (Galera Labs, LLC, priority 2020, published 2023).

Entries after “also recorded” stand apart in the source; their conditions may differ.

In the case of `[Cl][Mn][Cl].c1cc2nc(c1)CN[C@H]1CCCC[C@@H]1NCCN[C@H]1CCCC[C@@H]1NC2` [GC4419], the “cell ROS levels” value in experiment [1] is recorded as “decreased cell ROS levels”. Moreover, in experiment [2], the “sensitivity to hydroxy-Tam (clonogenic cell survival)” value was “became sensitive to hydroxy-Tam”. Besides, in experiment [3], the “ionizing radiation resistance (IRR) phenotype, clonogenic cell survival” value is reported as “reversed the IRR phenotype”. Also, in experiment [4], the “Tam resistance in vitro” value was “reverses Tam resistance”. The oral mucositis result in experiment [5] is recorded as “reduce oral mucositis”. Also, the values for the Ki-67 staining result in experiment [6] and in experiment [8] were “exhibited decreased Ki-67 IHC staining” and “reversed the increase in Ki-67 IHC staining; also recorded: decreased Ki-67 levels”, respectively. Also, the “VEGFr inhibitor-induced pulmonary disease” value in experiment [7] is on record as “attenuate VEGFr inhibitor-induced pulmonary disease”.
